# Source: patent US20230256092A1, “COMBINED USE OF ANTI-CCR8 ANTIBODY AND CHEMOTHERAPEUTIC AGENT” (Shionogi & Co., Ltd., priority 2020, published 2023)
# Experiments:
# Type in all cases: in vivo, mouse
# [1] = system: bladder cancer-derived MB49 cells; assay: Example 4: C57BL/6 mice inoculated with MB49 cells, carboplatin or cisplatin combination; settings: antibody 50 μg iv days 4, 7; carboplatin 40 mg/kg or cisplatin 3 mg/kg iv day 4; single groups 7, 10, 14, 17, 18 days; carboplatin combination from 10 days, cisplatin combination from 14 days; Mann-Whitney U
# Experimental: The back of each C57BL/6 mouse (6 weeks old, male) was intracutaneously inoculated with 2×10^5 bladder cancer-derived MB49 cells (50 μL).
# To an anti-mouse CCR8 antibody single administration group, 50 μg (200 μL) of an anti-mouse CCR8 antibody (clone SA214G2, BioLegend, Inc.) was intravenously administered 4 and 7 days after tumor inoculation, and saline was intravenously administered at a volume of 10 mL/kg body weight 4 days after tumor inoculation (N=10).
# To a carboplatin single administration group, 50 μg (200 uL) of an isotype control antibody (clone LTF-2, Bio X Cell, Inc.) was intravenously administered 4 and 7 days after tumor inoculation, and carboplatin (trade name: PARAPLATIN, Bristol-Myers Squibb Company) at 40 mg/kg body weight was intravenously administered at a volume of 10 mL/kg body weight 4 days after tumor inoculation (N=10). […]
# Tumor volumes were measured every 1 to 4 days from 4 days after tumor inoculation. The tumor volume (mm^3) was measured in long diameter (mm)×short diameter (mm)×short diameter (mm)/2, and a significant difference test based on a Mann-Whitney U method (significance level: P<0.05) was conducted. […]
# [2] = system: breast cancer-derived 4T1 cells; assay: Example 1: Balb/c mice inoculated with 4T1 cells, carboplatin combination; settings: antibody 50 μg iv days 5, 8; carboplatin 114 mg/kg iv day 5; single groups 8, 12, 15, 18, 22 days after inoculation, combined from 8 days; Mann-Whitney U
# Experimental: (§1) The back of each Balb/c mouse (6 weeks old, female) was intracutaneously inoculated with 2×10^5 breast cancer-derived 4T1 cells (50 μL).
# (§2) To an anti-mouse CCR8 antibody single administration group, 50 μg (200 μL) of an anti-mouse CCR8 antibody (clone SA214G2, BioLegend, Inc.) was intravenously administered 5 and 8 days after tumor inoculation, and saline was intravenously administered at a volume of 11.4 mL/kg body weight 5 days after tumor inoculation (N=10). To a carboplatin single administration group, 50 μg (200 μL) of an isotype control antibody (clone LTF-2, Bio X Cell, Inc.) was intravenously administered 5 and 8 days after tumor inoculation, and carboplatin (trade name: PARAPLATIN, Bristol-Myers Squibb Company) at 114 mg/kg body weight was intravenously administered at a volume of 11.4 mL/kg body weight 5 days after tumor inoculation (N=10). […] Tumor volumes were measured every 3 to 4 days from 5 days after tumor inoculation. The tumor volume (mm^3) was measured in long diameter (mm)×short diameter (mm)×short diameter (mm)/2, and a significant difference test based on a Mann-Whitney U method (significance level: P<0.05) was conducted.
# [3] = system: lung cancer-derived ASB-XIV cells; assay: Example 7: hCCR8-KI (KI/KI) mice inoculated with ASB-XIV cells, cisplatin combination; settings: antibody 1 mg/kg iv and cisplatin 3 mg/kg iv day 5; 14, 17 and 19 days after tumor inoculation; Mann-Whitney U
# Experimental: To an anti-human CCR8 antibody single administration group, an anti-human CCR8 antibody (humanized 10A11 antibody (light chain variable region: IGKV4-1 N53Q+G29R (SEQ ID NO: 59)/heavy chain variable region: IGHV3-15 T94R (SEQ ID NO: 41))) at 1 mg/10 mL/kg body weight and saline at 10 mL/kg body weight were intravenously administered 5 days after tumor inoculation (N=10). To a cisplatin single administration group, a control solution at 10 mL/kg body weight and cisplatin (trade name: RANDA, Nippon Kayaku Co., Ltd.) at 3 mg/10 mL/kg body weight were intravenously administered 5 days after tumor inoculation (N=10). To an anti-human CCR8 antibody and cisplatin combined administration group, an anti-human CCR8 antibody at 1 mg/10 mL/kg body weight and cisplatin at 3 mg/10 mL/kg body weight were intravenously administered 5 days after tumor inoculation (N=10). To a control group, a control solution at 10 mL/kg body weight and saline at 10 mL/kg body weight were intravenously administered 5 days after tumor inoculation (N=10). Tumor volumes were measured every 2 to 5 days from 5 days after tumor inoculation. The tumor volume (mm^3) was measured in long diameter (mm)×short diameter (mm)×short diameter (mm)/2, and a significant difference test based on a Mann-Whitney U method (significance level: P<0.05) was conducted.
# [4] = system: breast cancer-derived 4T1 cells; assay: Example 3: hCCR8-KI (KI/KI) mice inoculated with 4T1 cells, cisplatin combination; settings: antibody 400 μg iv days 5, 8; cisplatin 8 mg/kg iv day 5; cisplatin single 8, 11, 13, 15, 18, 21, 25, 29 days, combined from 8 days; Mann-Whitney U
# Experimental: To an anti-human CCR8 antibody single administration group, 400 μg (200 μL) of an anti-human CCR8 antibody (humanized 10A11 antibody (light chain variable region: IGKV4-1 N53Q+G29R (SEQ ID NO: 59)/heavy chain variable region: IGHV3-15 T94R (SEQ ID NO: 41))) was intravenously administered 5 and 8 days after tumor inoculation, and saline was intravenously administered at a volume of 16 mL/kg body weight 5 days after tumor inoculation (N=10). To a cisplatin single administration group, 200 μL of a control solution (obtained by diluting a buffer solution used for the antibody with saline in line with an antibody dilution ratio) was intravenously administered 5 and 8 days after tumor inoculation, and cisplatin (trade name: RANDA, Nippon Kayaku Co., Ltd.) at 8 mg/kg body weight was intravenously administered at a volume of 16 mL/kg body weight 5 days after tumor inoculation (N=10). […] Tumor volumes were measured every 2 to 4 days from 5 days after tumor inoculation. The tumor volume (mm^3) was measured in long diameter (mm)×short diameter (mm)×short diameter (mm)/2, and a significant difference test based on a Mann-Whitney U method (significance level: P<0.05) was conducted.
# [5] = system: breast cancer-derived 4T1 cells; assay: Example 2: Balb/c mice inoculated with 4T1 cells, gemcitabine combination; settings: antibody 50 μg iv days 5, 8; gemcitabine 50 mg/kg iv day 5; gemcitabine single 8, 12, 15, 18, 22 days, combined from 8 days; Mann-Whitney U
# Experimental: as §1
# as §2, with “10” for “11.4”, “gemcitabine” for “carboplatin”, “GEMZAR, Eli Lilly Inc.)” for “PARAPLATIN, Bristol-Myers Squibb Company)”, “50” for “114”
# [6] = system: lung cancer-derived ASB-XIV cells; assay: Example 8: hCCR8-KI (KI/KI) mice inoculated with ASB-XIV cells, paclitaxel combination
# Experimental: To an anti-human CCR8 antibody single administration group, an anti-human CCR8 antibody (humanized 10A11 antibody (light chain variable region: IGKV4-1 N53Q+G29R (SEQ ID NO: 59)/heavy chain variable region: IGHV3-15 T94R (SEQ ID NO: 41))) at 0.5 mg/10 mL/kg body weight and saline at 10 mL/kg body weight were intravenously administered 5 days after tumor inoculation (N=10). To a paclitaxel single administration group, saline at 10 mL/kg body weight and paclitaxel (trade name: TAXOL, Bristol-Myers Squibb Company) at 8 mg/10 mL/kg body weight were intravenously administered 5 days after tumor inoculation (N=10). To an anti-human CCR8 antibody and paclitaxel combined administration group, an anti-human CCR8 antibody at 0.5 mg/10 mL/kg body weight and paclitaxel at 8 mg/10 mL/kg body weight were intravenously administered 5 days after tumor inoculation (N=10). To a control group, saline was intravenously administered at 20 mL/kg 5 days after tumor inoculation (N=10). Tumor volumes were measured every 2 to 5 days from 5 days after tumor inoculation. The tumor volume (mm^3) was measured in long diameter (mm)×short diameter (mm)×short diameter (mm)/2, and a significant difference test based on a Student's T: one-sided test method (significance level: P<0.05) was conducted.
compound,measurement,setting,value
N.N.O=C([O-])C1(C(=O)[O-])CCC1.[Pt+2] [carboplatin],tumor volume as compared to the control group,[1],no significant difference
same,tumor volume as compared to the control group,[2],no significant difference
"N.N.[Cl][Pt][Cl] [cisplatin, reference compound]",tumor volume as compared to the control group,[3],no significant decrease
same,tumor volume as compared to the control group,[4],significant decrease
same,tumor volume as compared to the control group,[1],no significant difference
Nc1ccn([C@@H]2O[C@H](CO)[C@@H](O)C2(F)F)c(=O)n1 [gemcitabine],tumor volume as compared to the control group,[5],significant decrease
CC(=O)O[C@H]1C(=O)[C@@]2(C)[C@H]([C@H](OC(=O)c3ccccc3)[C@]3(O)C[C@H](OC(=O)[C@H](O)[C@@H](NC(=O)c4ccccc4)c4ccccc4)C(C)=C1C3(C)C)[C@]1(OC(C)=O)CO[C@@H]1C[C@@H]2O [paclitaxel],tumor volume as compared to the control group,"[6]; antibody 0.5 mg/kg iv and paclitaxel 8 mg/kg iv day 5, antibody single 10, 12, 14, 18 days, paclitaxel single 10 and 12 days, combined from 10 days, Student's T one-sided",significant decrease
same,"tumor volume as compared to the control group, later time points","[6]; paclitaxel 8 mg/kg iv day 5, 14 and 17 days after tumor inoculation",the significant difference disappeared
